Reference: ChEMBL document CHEMBL5303573, “Mapping human microbiome drug metabolism by gut bacteria and their genes” (Nature, 2019)

What was measured:
[1] = The drug is tested on Bacteroides pectinophilus strain: ATCC43243 for biotransformation. The drug concentrations were measured before and after a 12-h incubation by liquid-chromatography-coupled mass spectrometry (LC–MS); details: 2 µM
[2] = The drug is tested on Eubacterium rectale strain: ATCC33656 for biotransformation. The drug concentrations were measured before and after a 12-h incubation by liquid-chromatography-coupled mass spectrometry (LC–MS); details: agathobacter rectalis, 2 µM
[3] = The drug is tested on Dorea formicigenerans strain: ATCC27755 for biotransformation. The drug concentrations were measured before and after a 12-h incubation by liquid-chromatography-coupled mass spectrometry (LC–MS); details: 2 µM
[4] = The drug is tested on Bacteroides sp. WH2 strain: WH2 for biotransformation. The drug concentrations were measured before and after a 12-h incubation by liquid-chromatography-coupled mass spectrometry (LC–MS); details: bacteroides sp. wh2, 12 h, 2 µM
[5] = The drug is tested on Parabacteroides merdae strain: ATCC43184 for biotransformation. The drug concentrations were measured before and after a 12-h incubation by liquid-chromatography-coupled mass spectrometry (LC–MS); details: 2 µM
[6] = The drug is tested on Enterobacter cancerogenus strain: ATCC35316 for biotransformation. The drug concentrations were measured before and after a 12-h incubation by liquid-chromatography-coupled mass spectrometry (LC–MS); details: 2 µM
[7] = The drug is tested on Collinsella aerofaciens strain: ATCC25986 for biotransformation. The drug concentrations were measured before and after a 12-h incubation by liquid-chromatography-coupled mass spectrometry (LC–MS); details: 2 µM
[8] = parabacteroides johnsonii, 12 h, 2 µM
Description: The drug is tested on Parabacteroides johnsonii strain: DSM18315 for biotransformation. The drug concentrations were measured before and after a 12-h incubation by liquid-chromatography-coupled mass spectrometry (LC–MS)

[9] = bacteroides thetaiotaomicron, 12 h, 2 µM
Description: The drug is tested on Bacteroides thetaiotaomicron strain: VPI-5482 for biotransformation. The drug concentrations were measured before and after a 12-h incubation by liquid-chromatography-coupled mass spectrometry (LC–MS)

[10] = The drug is tested on Ruminococcus lactaris strain: ATCC29176 for biotransformation. The drug concentrations were measured before and after a 12-h incubation by liquid-chromatography-coupled mass spectrometry (LC–MS); details: 2 µM
[11] = The drug is tested on Bacteroides fragilis strain: ATCC43859 for biotransformation. The drug concentrations were measured before and after a 12-h incubation by liquid-chromatography-coupled mass spectrometry (LC–MS); details: 2 µM
[12] = parabacteroides distasonis, 12 h, 2 µM
Description: The drug is tested on Parabacteroides distasonis strain: ATCC8503 for biotransformation. The drug concentrations were measured before and after a 12-h incubation by liquid-chromatography-coupled mass spectrometry (LC–MS)

[13] = enterocloster bolteae, 12 h, 2 µM
Description: The drug is tested on Clostridium bolteae strain: ATCCBAA-613 for biotransformation. The drug concentrations were measured before and after a 12-h incubation by liquid-chromatography-coupled mass spectrometry (LC–MS)

[14] = akkermansia muciniphila, 12 h, 2 µM
Description: The drug is tested on Akkermansia muciniphila strain: ATCC BAA-835 for biotransformation. The drug concentrations were measured before and after a 12-h incubation by liquid-chromatography-coupled mass spectrometry (LC–MS)

[15] = The drug is tested on Clostridium ramosum strain: DSM1402 for biotransformation. The drug concentrations were measured before and after a 12-h incubation by liquid-chromatography-coupled mass spectrometry (LC–MS); details: thomasclavelia ramosa, 2 µM
[16] = The drug is tested on Ruminococcus gnavus strain: ATCC29149 for biotransformation. The drug concentrations were measured before and after a 12-h incubation by liquid-chromatography-coupled mass spectrometry (LC–MS); details: mediterraneibacter gnavus, 2 µM
[17] = bacteroides intestinalis, 12 h, 2 µM
Description: The drug is tested on Bacteroides intestinalis strain: DSM17393 for biotransformation. The drug concentrations were measured before and after a 12-h incubation by liquid-chromatography-coupled mass spectrometry (LC–MS)

[18] = The drug is tested on Edwardsiella tarda strain: ATCC23685 for biotransformation. The drug concentrations were measured before and after a 12-h incubation by liquid-chromatography-coupled mass spectrometry (LC–MS); details: 2 µM
[19] = The drug is tested on Escherichia coli strain: BW25113 for biotransformation. The drug concentrations were measured before and after a 12-h incubation by liquid-chromatography-coupled mass spectrometry (LC–MS); details: 2 µM
[20] = The drug is tested on Alistipes indistinctus strain: DSM22520 for biotransformation. The drug concentrations were measured before and after a 12-h incubation by liquid-chromatography-coupled mass spectrometry (LC–MS); details: 2 µM

SMILES	Bacterial Biotransformation [1]	Bacterial Biotransformation [2]	Bacterial Biotransformation [3]	Bacterial Biotransformation [4]	Bacterial Biotransformation [5]	Bacterial Biotransformation [6]	Bacterial Biotransformation [7]	Bacterial Biotransformation [8]	Bacterial Biotransformation [9]	Bacterial Biotransformation [10]	Bacterial Biotransformation [11]	Bacterial Biotransformation [12]	Bacterial Biotransformation [13]	Bacterial Biotransformation [14]	Bacterial Biotransformation [15]	Bacterial Biotransformation [16]	Bacterial Biotransformation [17]	Bacterial Biotransformation [18]	Bacterial Biotransformation [19]	Bacterial Biotransformation [20]
COc1ccc(/C=C/C(=O)Nc2ccccc2C(=O)O)cc1OC	Compound NOT metabolized	Compound NOT metabolized	Compound NOT metabolized	Compound metabolized	Compound NOT metabolized	Compound NOT metabolized	Compound NOT metabolized	Compound NOT metabolized	Compound NOT metabolized	Compound NOT metabolized	Compound NOT metabolized	Compound NOT metabolized	Compound NOT metabolized	Compound NOT metabolized	Compound NOT metabolized	Compound NOT metabolized	Compound NOT metabolized	Compound NOT metabolized	Compound NOT metabolized	–
C[C@@H]1C[C@H]2[C@@H]3CCC4=CC(=O)C=C[C@]4(C)[C@@]3(F)[C@@H](O)C[C@]2(C)[C@@]1(O)C(=O)CO [DEXAMETHASONE]	–	Compound NOT metabolized	Compound NOT metabolized	Compound NOT metabolized	–	Compound NOT metabolized	–	Compound metabolized	Compound metabolized	Compound NOT metabolized	Compound metabolized	Compound NOT metabolized	–	Compound NOT metabolized	–	Compound NOT metabolized	Compound NOT metabolized	Compound NOT metabolized	Compound NOT metabolized	Compound NOT metabolized
COc1c2occc2cc2ccc(=O)oc12 [METHOXSALEN]	Compound NOT metabolized	–	Compound NOT metabolized	–	–	Compound NOT metabolized	Compound NOT metabolized	Compound metabolized	Compound NOT metabolized	–	Compound metabolized	Compound metabolized	Compound metabolized	–	Compound metabolized	Compound metabolized	Compound metabolized	Compound NOT metabolized	Compound NOT metabolized	Compound NOT metabolized
CC(C)(C)NCC(O)COc1cccc2c1CC(O)C(O)C2 (stereo not drawn) [NADOLOL]	Compound NOT metabolized	–	Compound NOT metabolized	Compound NOT metabolized	Compound NOT metabolized	Compound NOT metabolized	Compound NOT metabolized	Compound NOT metabolized	Compound NOT metabolized	Compound NOT metabolized	Compound NOT metabolized	–	Compound NOT metabolized	Compound NOT metabolized	Compound NOT metabolized	Compound NOT metabolized	Compound NOT metabolized	Compound NOT metabolized	–	–
CCc1nc(N)nc(N)c1-c1ccc(Cl)cc1 [PYRIMETHAMINE]	Compound NOT metabolized	–	Compound NOT metabolized	Compound NOT metabolized	Compound NOT metabolized	Compound NOT metabolized	Compound NOT metabolized	Compound NOT metabolized	Compound NOT metabolized	Compound NOT metabolized	Compound NOT metabolized	Compound NOT metabolized	Compound NOT metabolized	–	–	Compound NOT metabolized	Compound NOT metabolized	Compound NOT metabolized	–	Compound NOT metabolized
O=C(NC(Cc1cc(=O)[nH]c2ccccc12)C(=O)O)c1ccc(Cl)cc1 (stereo not drawn) [REBAMIPIDE]	Compound NOT metabolized	Compound NOT metabolized	Compound NOT metabolized	–	Compound NOT metabolized	Compound NOT metabolized	Compound NOT metabolized	Compound NOT metabolized	Compound NOT metabolized	Compound NOT metabolized	–	Compound NOT metabolized	Compound NOT metabolized	Compound NOT metabolized	Compound NOT metabolized	Compound NOT metabolized	Compound NOT metabolized	Compound NOT metabolized	–	Compound NOT metabolized
